The values that follow come from paper PMC11372839, “Unraveling the Potential of Vitamin B3-Derived Salts with a Salicylate Anion as Dermal Active Agents for Acne Treatment” (Molecular Pharmaceutics, 2024).

The test system of series [1] is cyclooxygenase-2 (PDB ID: 1CX2). The series can be described thus: Molecular docking (AutoDock4). Conditions: from docking IC50 values.
Procedure: Docking studies were performed using the AutoDock4 program in AutoDockTools 1.5.7.[28] The structures for ligands (reference substances and N-alkylnicotinamide cations) were optimized for energy minimization using the MMFF94 force field in Avogadro 1.2.0 with the steepest descent algorithm and subsequently converted to a PDBQT format using OpenBabelGUI. The three-dimensional structure of target cyclooxygenase-2 (Protein Data Bank ID: 1CX2) was retrieved from Protein Data Bank (http://www.pdb.org) with a resolution of 3.00 Å. The protein molecule 1CX2 was prepared using AutoDockTools version 1.5.7. The preparation process involved checking for missing atoms, repairing any missing atoms, adding polar hydrogens and Kollman charges, and distributing charges over all of the atoms on residues. All cocrystallized compounds present in the 1CX2 structure (including water molecules and the ligand) were removed prior to the calculations. […] The interaction between the ligand and receptor and hydrogen bond lengths were analyzed using AutoDockTools and PLIP (Protein Ligand Interaction Profiler) developed by Biotechnology Center TU Dresden (BIOTEC).
The nature of series [2]: Octanol–water partition coefficient, shake-flask method (OECD Test No. 107). It is filed as physicochemical. Conditions: shake-flask, 25 °C, 24 h, average of six results; read-out: Octanol-water partition coefficient (log Kow). On the procedure:
The octanol–water partition coefficients (KOW) of the synthesized products were estimated by the shake-flask method according to the OECD Test No. 107 guidelines (Partition Coefficient n-Octanol/Water: Shake-Flask Method). Measurements were performed using mutually saturated distilled water and 1-octanol in a glass vial containing a magnetic stir bar. First, the synthesized products were dissolved in distilled water (or 1-octanol) at a chosen concentration (0.01 mol per 1 L of octanol or water), and then proper amounts of the second solvent (octanol or water) were added. Subsequently, two duplicate runs were carried out with different solvent ratios: 4 mL of 1-octanol and 2 mL of water (2:1), 4 mL of 1-octanol and 4 mL of water (1:1), and 4 mL of 1-octanol and 8 mL of water ([…]). All vials were shaken at a constant temperature of 25 °C. After 24 h, all samples were centrifuged and the aqueous and octanolic phases were collected with a syringe. The concentrations of compounds in water were determined spectrophotometrically using a Rayleigh UV-1601 spectrophotometer (Beijing Beifen-Ruili Analytical, China) based on calibration curves made previously (at λmax = 262 nm) vs concentration for each substance. Two repetitions of each measurement were performed in a specific solvent ratio (1:1, 1:2, and 2:1). Finally, the log KOW was calculated as the average of six results collected for each compound.
The outermost layer of the skin (stratum corneum) contains around […] water, a relatively low amount compared to the rest of the human body. Given the hydrophobic nature of 1-octanol, it can be used as a simplified model for the stratum corneum.[50] The octanol–water partition coefficient (KOW) value represents the proportion between the concentrations of a substance in both liquid phases of a system composed of water and 1-octanol. […] The log KOW values are given in Figure 6 (exact values are provided in Table S4, Supporting Information).

The test system of series [3] is Staphylococcus epidermidis. Put plainly: MIC and MBC determination, microdilution method. It is filed as cell-based. The protocol:
(§1) The antimicrobial activities of the compounds were tested against clinical strains of an aerobic Gram-negative bacterium—Pseudomonas aeruginosa (P. aeruginosa), facultative anaerobic Gram-positive bacteria—Staphylococcus aureus (S. aureus) and Staphylococcus epidermidis (S. epidermidis), anaerobic Gram-positive bacterium—Cutibacterium acnes (C. acnes), and yeast-like fungus—Candida albicans (C. albicans).
(§2) Aerobic and facultative anaerobic bacteria cultures were grown in Brain Heart Infusion broth (BHI, bioMerieux, France) at 35 °C ± 1 °C for 18 h, C. acnes cultures were grown in thioglycolate broth with resazurin (TGB, bioMerieux, France) at 35 ± 1 °C for 48 h, and yeast cultures were grown in Sabouraud dextrose broth (SDB, Merck, Germany) at 35 ± 1 °C for 24 h. After incubation, each culture was diluted in a suitable liquid medium: P. aeruginosa, S. aureus, and S. epidermidis—Mueller–Hinton broth (MHB; Oxoid, UK); C. acnes—TGB; and C. albicans—SDB, to obtain a final suspension containing about 10^6 CFU/mL.
(§3) The microdilution method was employed to determine the compounds’ MIC (Minimal Inhibitory Concentration) and MBC/MFC (Minimal Bactericidal Concentration/Minimal Fungicidal Concentration) against the tested bacterial and fungal strains.
(§4) The compounds were serially diluted (2-fold) in the respective media (P. aeruginosa, S. aureus, and S. epidermidis—MHB, C. acnes—TGB, and C. albicans—SDB in 96-well plates), and the microbial suspensions were added. The compounds were tested in the final concentration range of 4 096 to 0.125 μg/mL, and the final microbial inoculum was approximately 5 ×10^5 CFU/mL. The tests were incubated at 35 °C ± 1 °C for 18 h (P. aeruginosa, S. aureus, and S. epidermidis) or 24 h (C. albicans) or 48 h (C. acnes). C. acnes was incubated in an anaerobic atmosphere using a GENbag anaer (bioMerieux, France). Media (without the strains) added to the different concentrations of tested compounds and media inoculated with microbial suspension were used as a negative control and growth control, respectively.
(§5) The MIC was defined as the lowest concentration at which visible growth was inhibited. MBC and MFC concentrations were determined as an extension of the MIC test. […] The plates were incubated at 35 ± 1 °C for 18–72 h. C. acnes was incubated in an anaerobic atmosphere. The MBC/MFC was defined as the lowest concentration at which no growth was observed. All tests were performed in duplicate.
A general note: Broth dilution looks for growth in wells or tubes with falling amounts of substance.

The test system of the next series is Cutibacterium acnes. The series can be described thus: MIC and MBC determination, microdilution method. It is filed as cell-based. Conditions: Cutibacterium acnes. The protocol: as §1, §2, §3, §4, §5
A further series deals with Staphylococcus aureus. Put plainly: MIC and MBC determination, microdilution method. It is filed as cell-based. The protocol:
as §1, §2, §3, §4, §5

The subject of a further series is Pseudomonas aeruginosa. Put plainly: MIC and MBC determination, microdilution method. It is filed as cell-based. The protocol: as §1, §2, §3, §4, §5
The subject of another series is Candida albicans. The series can be described thus: MIC and MFC determination, microdilution method. It is filed as cell-based. The protocol:
as §1, §2, §3, §4, §5

A further series in a line: Solubility in PBS. Particulars: Pharmacopeia solubility class, PBS pH 7.4, 25 °C. On the procedure: The solubility in PBS solution was determined by placing 1 g (±0.0001) of tested compound in a round-bottom flask and adding specific parts of the PBS solution in portions until full dissolution. The samples were vigorously stirred for at least 5 min before the addition of the next portion of PBS, and the systems were thermostated at 25 °C. Three repetitions of the measurement were performed for each of the compounds.
Most studies on the solubility of novel APIs are carried out with pure water, aqueous PBS solutions were much more preferred due to their higher similarity to intra- and intercellular media in epidermis, while envisaging their use in transdermal delivery and skin care applications.[60] […] The collected data are presented in Figure 8 (as well as in Table S6 in the Supporting Information).

A further series relates to Artemia franciscana. Put plainly: Ecotoxicity toward aquatic life, Artoxkit M immobilization test. It is filed as in vivo. Particulars: for EC50: Artemia franciscana. On the procedure:
To determine the EC50 parameter for compounds, tests were carried out on marine crustaceans—Artemia franciscana (A. franciscana). The methodology proposed in the Artoxkit M test (MicroBioTests Inc., Gent, Belgium) was developed according to the ASTM E1440-91 standard.
The hatching process was started first. For this purpose, 50 mg of cysts was transferred to the Petri dishes attached to the Artoxkit M set, which were then immersed in 10 mL of artificial seawater with a salinity of 35‰ (a medium for the development of the tested organisms, as well as a solvent for preparing solutions of the tested compounds) and placed at a temperature of 25 °C, with access to light (6000–10,000 lux) for 30 h. Then, 2 h before placing them on the Artoxkit M plates, 20 mg of spirulina was added to cultured artemias. In addition, 1 h before the analysis, the used seawater was oxygenated by passing a stream of air through the solution. To each of the four cells in a given row of a plate from the Artoxkit M kit, 1 mL of solution at the specified concentrations (or the appropriate medium in the case of a control) were introduced. In the first column of cells (a control sample and five selected concentrations), no less than 30 artemias were placed from previously prepared Petri dishes. Then, from the first cell in the first column, artemias were collected at the selected concentration and added to the next three cells in the selected row, 10 organisms per cell. After the organisms were introduced into the appropriate cells, the plates were covered with Parafilm and then closed with a plastic cap. The prepared kit was incubated at 25 °C and protected from light. Number of motionless organisms were counted after 24 and 48 h. Immobilization was then calculated (eq 1) in relation to the number of organisms at the start of the test: [drawing 1] 1
Next, the dependence between the effect and concentration of the tested compounds was plotted, and on this basis, an EC50 value was determined.

What is called MIC is the least concentration at which growth counts as inhibited. Broadly, the MBC is the smallest concentration meeting the test's criterion for killing. By MFC is commonly meant the lowest tested concentration that kills the fungus rather than only halting it.

Like-named read-outs stand apart in the source and are kept apart here.

With `CCCCCCCCCCCC[n+]1cccc(C(N)=O)c1.O=C([O-])c1ccccc1O` [compound 6], in series [1], the “times more potent than NA itself” value was found to be 125 times. In series [2], the logP at 24 h is 0.6. In addition, the minimum inhibitory concentration (MIC) in series [3] (18 h, read-out: MIC, S. epidermidis) is 256 µg/mL; with Cutibacterium acnes (48 h, read-out: MIC, C. acnes), 64 µg/mL; in the series with Staphylococcus aureus (18 h, read-out: MIC, S. aureus) it was 8 µg/mL; in the series on Pseudomonas aeruginosa (18 h, read-out: MIC, P. aeruginosa), 256 µg/mL; with Candida albicans (24 h, read-out: MIC, C. albicans) it was 256 µg/mL. In addition, the MBC is 256 µg/mL in series [3] (read-out: MBC, S. epidermidis); 64 µg/mL with Cutibacterium acnes (read-out: MBC, C. acnes); 8 µg/mL in the series with Staphylococcus aureus (read-out: MBC, S. aureus); 256 µg/mL in the series on Pseudomonas aeruginosa (read-out: MBC, P. aeruginosa). The minimum fungicidal concentration (MFC) in the series with Candida albicans (read-out: MFC, C. albicans) stood at 256 µg/mL. Also, in the series “Solubility in PBS”, the “Solubility in PBS, Class” value is recorded as “Very Slightly Soluble (1000-10 000)”. Also, the EC50 in the series with Artemia franciscana (immobilization, motionless organisms counted after 24 and 48 h, 25 °C, read-out: EC50) was 89.7 µg/mL; in the series on Artemia franciscana (toxicity range of EC50, read-out: Range), 10 to 100 µg/mL. For the same compound, the Class entry in the series on Artemia franciscana (acute toxicity rating scale by Fish and Wildlife Service) is “Slightly Toxic (10-100)”.
